# Reference: publication PMC2114115 (The Journal of Cell Biology, 1986)
# Legend:
# [1] = test system: SRIF receptors of GH4C1 cells; assay: Specific binding of [125I-Tyr1]SRIF to GH4C1 cells; parameters: species or system rat; conditions: for cellular accumulation of total or acid-resistant [125I-Tyr1]SRIF: ammonium chloride 20 mM, leupeptin 0.1 mg/ml; for [125I-Tyr1]SRIF bound, Total: Table III, control, leupeptin 0.1 mg/ml or chloroquine 0.1 mM
# [2] = biological target: EGF receptors of GH4C1 cells (Rattus norvegicus, UniProt G3V6K6); assay: Specific binding of 125I-EGF to GH4C1 cells; conditions: for amount of cell-associated 125I-EGF: Fig. 5, prolonged 37C binding incubations, chloroquine 0.1 mM, leupeptin 0.1 mg/ml
# [3] = test system: GH4C1 cells; assay: Release and degradation of cell-bound 125I-EGF; type: cell-based, rat; conditions: 37C; for subsequent rate of release of 125I-tyrosine from 125I-EGF: chloroquine 0.1 mM, leupeptin 0.1 mg/ml; for half-time for the release of 125I-tyrosine derived from receptor-bound 125I-EGF: Fig. 6, control cells or 0.1 mM chloroquine, 59 pM, 90 min binding
# [4] = test system: GH4C1 cells; assay: Release and degradation of cell-bound [125I-Tyr1]SRIF; type: cell-based, rat; conditions: for rate of dissociation or degradation of prebound [125I-Tyr1]SRIF / half-time of release of radioactivity after [125I-Tyr1]SRIF binding: 37C; for rate of dissociation or degradation of prebound [125I-Tyr1]SRIF: chloroquine 0.1 mM, leupeptin 0.1 mg/ml; for half-time of release of radioactivity after [125I-Tyr1]SRIF binding: Fig. 6, absence or presence of 0.1 mM chloroquine, or 0.1 mg/ml leupeptin, 35 pM, 60 min binding; for effect on receptor-mediated degradation of [125I-Tyr1]SRIF: Table V conditions, compound in dissociation medium, 60 min at 37C
# [5] = test system: GH4C1 cells; conditions: 37C; cited from earlier work
# [6] = test system: GH4C1 cell membranes; assay: Binding, dissociation and degradation of [125I-Tyr1]SRIF with cell membranes; parameters: species or system rat; conditions: Table IV; dissociation incubation 4 h at 37C; without or with 100 nM SRIF
# [7] = test system: GH4C1 cells; conditions: Koch and Schonbrunn, unpublished observations; cited from earlier work
# [8] = test system: GH4C1 cells; assay: Acid/salt extraction: cellular distribution of receptor-bound 125I-EGF; type: cell-based, rat; conditions: pulse-chase at 37 degrees C after binding 5 h at 4C, 80 pM (Fig. 2)
# [9] = Table V Exp. 2, control or a2-macroglobulin 50 ug/ml
compound,measurement,setting,value
CCN(CC)CCCC(C)Nc1ccnc2cc(Cl)ccc12 (centres unmarked) [chloroquine],cellular accumulation of total or acid-resistant [125I-Tyr1]SRIF,"[1]; 37C, chloroquine 0.1 mM",none of these inhibitors increased
same,"[125I-Tyr1]SRIF bound, Total",[1]; chase 30 min at 37C,"3,491 cpm"
same,"[125I-Tyr1]SRIF bound, Total",[1]; chase 60 min at 37C,"1,725 cpm"
same,decrease in [125I-Tyr1]SRIF binding,"[1]; chloroquine 0.1 mM, 37C, all times",50%
same,amount of cell-associated 125I-EGF,[2],increased
same,subsequent rate of release of 125I-tyrosine from 125I-EGF,[3],decreased
same,half-time for the release of 125I-tyrosine derived from receptor-bound 125I-EGF,[3],150 min
same,rate of dissociation or degradation of prebound [125I-Tyr1]SRIF,[4],did not alter
same,half-time of release of radioactivity after [125I-Tyr1]SRIF binding,[4],41 min
"Cc1ccc(S(=O)(=O)N[C@@H](Cc2ccccc2)C(=O)CCl)cc1 [TPCK, L-l-tosylamide 2-phenylethyl chloromethyl ketone]",effect on receptor-mediated degradation of [125I-Tyr1]SRIF,[4],substantially inhibited
"Cc1ccc(S(=O)(=O)NC(CCCCN)C(=O)CCl)cc1 [TLCK, Na-p-tosyl-L-lysine chloromethyl ketone]",effect on receptor-mediated degradation of [125I-Tyr1]SRIF,[4],same small effect
"epidermal growth factor (NSYPGCPSSYDGYCLNGGVCMHIESLDSYTCNCVIGYSGDRCQTRDLRWWELR; not fully specified; Epidermal growth factor; UniProt P01132 977-1029, looked up) [EGF]",time for transformation from acid-extractable to acid-resistant state,[5],≤ 10 min
"CC(C)C[C@H](NP(=O)(O)O[C@@H]1O[C@@H](C)[C@H](O)[C@@H](O)[C@H]1O)C(=O)N[C@@H](Cc1c[nH]c2ccccc12)C(=O)O [Phosphoramidon, phosphoramidon]",effect on receptor-mediated degradation of [125I-Tyr1]SRIF,[4],substantially inhibited
somatostatin [SRIF],125I bound,[6],"9,695 cpm"
same,125I dissociated,[6],"10,791 cpm"
same,time to maximal inhibitory effect on hormone secretion,[7],≤ 5 min
same,% Intact [125I-Tyr1]SRIF,"[4]; Table V Exp. 1, SRIF 0.1 mM in dissociation medium",65%
same,effect on receptor-mediated degradation of [125I-Tyr1]SRIF,[4],only a slight effect
COc1ccc(C[C@H](N)C(=O)N[C@H]2[C@@H](O)[C@H](n3cnc4c(N(C)C)ncnc43)O[C@@H]2CO)cc1 [puromycin],effect on receptor-mediated degradation of [125I-Tyr1]SRIF,[4],same small effect
O=C(O)c1cc[c]([Hg][Cl])cc1 [chloromercuribenzoate],effect on receptor-mediated degradation of [125I-Tyr1]SRIF,[4],substantially inhibited
"O=S(=O)(F)Cc1ccccc1 [PMSF, phenylmethylsulfonyl fluoride]",effect on receptor-mediated degradation of [125I-Tyr1]SRIF,[4],same small effect
a2-macroglobulin,125I released,[4]; [9],"2,217 cpm"
same,% Intact [125I-Tyr1]SRIF,[4]; [9],64%
same,effect on receptor-mediated degradation of [125I-Tyr1]SRIF,[4],same small effect
bacitracin,effect on receptor-mediated degradation of [125I-Tyr1]SRIF,[4],same small effect
CC(=O)N[C@@H](CC(C)C)C(=O)N[C@@H](CC(C)C)C(=O)N[C@H](C=O)CCCNC(=N)N [leupeptin],cellular accumulation of total or acid-resistant [125I-Tyr1]SRIF,"[1]; 37C, chloroquine 0.1 mM",none of these inhibitors increased
same,"[125I-Tyr1]SRIF bound, Total",[1]; chase 30 min at 37C,"5,537 cpm"
same,"[125I-Tyr1]SRIF bound, Total",[1]; chase 60 min at 37C,"3,385 cpm"
same,amount of cell-associated 125I-EGF,[2],increased
same,subsequent rate of release of 125I-tyrosine from 125I-EGF,[3],decreased
same,rate of dissociation or degradation of prebound [125I-Tyr1]SRIF,[4],did not alter
same,half-time of release of radioactivity after [125I-Tyr1]SRIF binding,[4],48 min
NC(=O)CI [iodoacetamide],effect on receptor-mediated degradation of [125I-Tyr1]SRIF,[4],substantially inhibited
"125I-EGF: radioiodinated epidermal growth factor, chloramine T iodination",half-time for the release of 125I-tyrosine derived from receptor-bound 125I-EGF,[3],45 min
same,half-time of transfer from acid-sensitive to acid-resistant compartment,[8],2 min
Cl.N [ammonium chloride],[125I-Tyr1]SRIF binding,"[1]; 20 mM ammonium chloride, 4 h at 37C, same experiment",unaffected
same,cellular accumulation of total or acid-resistant [125I-Tyr1]SRIF,"[1]; 37C, chloroquine 0.1 mM",none of these inhibitors increased
same,amount of 125I-EGF bound to cells,"[2]; 20 mM ammonium chloride, 4 h at 37C",210 % of untreated controls
